# From PMC8533642 (Journal of medicinal chemistry, 2021)
# Where two headings read alike, the source gives them in different places. Square brackets hold non-standard residues; d marks the D form. Peptide text beside a SMILES is read from it. dPhe(4-I) = N[C@H](Cc1ccc(I)cc1)C(=O)O; d2Nal = N[C@H](Cc1ccc2ccccc2c1)C(=O)O
# What was measured:
# [1] = compared to a control formulation lacking glycinamide; cited from earlier work
# [2] = test system: mouse B16-F10 melanoma cells; conditions: 30 and 100 μM, 100 nM α-MSH, 72 h; cited from earlier work
# MC1R = conditions: at 2 μM; cited from earlier work
# MC5R = conditions: cited from earlier work
# MC3R = conditions: at 2 μM; cited from earlier work
# MC4R = conditions: at 2 μM; cited from earlier work
# hMC4R = conditions: read-out: hMC4R IC50; tripeptide SAR study; cited from earlier work
# hMC1R = conditions: cited from earlier work
# human (h)MC4R = conditions: cited from earlier work
# hMC3R = conditions: cited from earlier work
# hMC5R = conditions: cited from earlier work
# mMC3R [3] = target: T1, mMC3R (Mus musculus, UniProt P33033); conditions: miniAGRP(87–120), β-galactosidase reporter gene assay; cited from earlier work
# T1 sequence (P33033 whole entry): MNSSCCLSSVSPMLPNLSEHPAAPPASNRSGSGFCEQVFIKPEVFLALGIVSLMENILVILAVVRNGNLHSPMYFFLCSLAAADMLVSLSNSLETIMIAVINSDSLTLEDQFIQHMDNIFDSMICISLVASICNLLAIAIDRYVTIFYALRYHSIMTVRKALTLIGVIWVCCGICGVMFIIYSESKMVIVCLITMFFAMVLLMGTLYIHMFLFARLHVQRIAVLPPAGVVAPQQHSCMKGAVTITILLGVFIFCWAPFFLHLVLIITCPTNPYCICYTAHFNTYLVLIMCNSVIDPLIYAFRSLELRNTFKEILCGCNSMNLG
# mMC4R [4] = target: T2, mMC4R (Mus musculus, UniProt P56450); conditions: miniAGRP(87–120), β-galactosidase reporter gene assay; cited from earlier work
# T2 sequence (P56450 whole entry): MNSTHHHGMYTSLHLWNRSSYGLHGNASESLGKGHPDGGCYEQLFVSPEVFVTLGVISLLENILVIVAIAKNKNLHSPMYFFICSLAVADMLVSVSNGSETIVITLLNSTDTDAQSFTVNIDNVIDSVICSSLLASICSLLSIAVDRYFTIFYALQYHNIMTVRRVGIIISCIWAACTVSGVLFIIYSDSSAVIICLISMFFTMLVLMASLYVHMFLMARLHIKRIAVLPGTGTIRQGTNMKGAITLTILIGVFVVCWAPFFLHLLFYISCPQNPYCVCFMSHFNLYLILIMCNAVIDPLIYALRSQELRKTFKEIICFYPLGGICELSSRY
# [5] = Solubility in solvents compatible with RP-HPLC
# mMC1R = mMC1R (Mus musculus, UniProt Q01727); assay: AlphaScreen cAMP agonist assay, HEK293 cells stably expressing mMC1R; assay type: cell-based; conditions: for mMC1R partial agonist percentage of receptor activation relative to NDP-MSH: partial agonists
# Sequence of mMC1R (Q01727 whole entry): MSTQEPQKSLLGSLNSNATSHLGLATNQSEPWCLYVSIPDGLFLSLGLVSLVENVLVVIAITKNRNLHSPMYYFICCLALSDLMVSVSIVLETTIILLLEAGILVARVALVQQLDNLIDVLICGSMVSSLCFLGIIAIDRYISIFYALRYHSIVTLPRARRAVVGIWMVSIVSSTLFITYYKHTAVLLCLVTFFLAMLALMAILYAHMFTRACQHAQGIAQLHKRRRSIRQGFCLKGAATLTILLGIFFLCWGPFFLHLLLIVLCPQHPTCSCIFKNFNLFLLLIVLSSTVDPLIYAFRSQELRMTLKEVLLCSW
# mMC4R [6] = target: T2, mMC4R; conditions: earlier report; cited from earlier work
# mMC4R [7] = target: T2, mMC4R; conditions: cited from earlier work
# mMC3R [8] = target: T1, mMC3R; conditions: earlier report; cited from earlier work
# mMC4R [9] = target: T2, mMC4R; conditions: mMC4R versus mMC3R antagonist potency
compound,measurement,setting,value
NCC(N)=O [glycinamide],effect on facial skin pigmentation,[1],decreased melanin index and skin pigmentation
same,effect on α-MSH-stimulated melanin production,[2],possessed anti-melanogenic activity
Ac-Nle-c[Asp-Oic-DBip-Pip-Trp-Lys]-NH2,MC1R activation,MC1R,up to 40%
same,EC50,MC5R; read-out: concentration activating the MC5R,0.99 nM
same,MC3R activation,MC3R,up to 40%
same,MC4R activation,MC4R,up to 40%
Ac-DNal(2’)-Arg-DNal(2’),IC50,hMC4R,36.5 nM
Ac-DNal(2’)-Arg-Nal(2’) [MCL0020],concentration up to which radiolabeled NDP-MSH was not displaced at hMC1R,hMC1R,> 10 µM
same,binding affinity at hMC4R,human (h)MC4R,11.63 nM
same,IC50,hMC4R,15.4 nM
same,binding affinity at hMC3R,hMC3R,1115 nM
Ac-Nle-c[Asp-Pro-DNal(2’)-Arg-Trp-Lys]-NH2 [PG901],hMC5R agonist potency in words,hMC5R,sub-nanomolar agonist potency
"miniAGRP(87–120): truncated agouti-related protein melanocortin receptor antagonist (CVRLHESCLGQQVPCCDPCATCYCRFFNAFCYCR; UniProt O00253 87-120, looked up, fragment)",mMC3R pA2,mMC3R [3],8.1±0.1
same,mMC4R pA2,mMC4R [4],8.5±0.1
Ac-Ser-Tyr-Ser-Nle-Glu-Oic-DBip-Pip-Trp-Gly-Lys-Pro-Val-NH2 (WGKPV; N-terminal Ac-Ser-Tyr-Ser-Nle-Glu-Oic-DBip-Pip; C-terminal amide; printed: Trp-Gly-Lys-Pro-Val-),MC5R agonist potency in words,MC5R,sub-nanomolar MC5R agonist
CC(=O)N[C@H](Cc1ccc2ccccc2c1)C(=O)N[C@H](Cc1ccc2ccccc2c1)C(=O)N[C@H](Cc1ccc2ccccc2c1)C(=O)N[C@H](Cc1ccc2ccccc2c1)C(N)=O [Ac-DNal(2’)-DNal(2’)-DNal(2’)-DNal(2’)-NH2] (Ac-[d2Nal][d2Nal][d2Nal][d2Nal]-NH2),solubility in solvents compatible with RP-HPLC,[5],insoluble
"CC(=O)N[C@H](Cc1ccc2ccccc2c1)C(=O)N[C@@H](CCCNC(=N)N)C(=O)N[C@H](Cc1ccc(I)cc1)C(=O)N[C@H](Cc1ccc2ccccc2c1)C(N)=O [Peptide 20, Ac-DNal(2’)-Arg-DPhe(pI)-DNal(2’)-NH2] (Ac-[d2Nal]R[dPhe(4-I)][d2Nal]-NH2)",mMC1R agonist activity in words,mMC1R; full agonist = 90% of maximal NDP-MSH signal,full agonist activity
same,"mMC4R pA2, previously reported",mMC4R [6],5.9
same,"mMC4R partial agonist efficacy, % of the maximal NDP-MSH signal, previously reported",mMC4R [7]; earlier report,37%
same,"mMC3R pA2, previously reported",mMC3R [8],5.6
Ac-Oic-DBip-Pip-Trp-NH2,EC50,MC5R; read-out: MC5R agonist potency,1200 nM
"CC(=O)N[C@H](Cc1ccc2ccccc2c1)C(=O)N[C@@H](CCCNC(=N)N)C(=O)N[C@H](Cc1ccc2ccccc2c1)C(=O)N[C@H](CCCCN)C(N)=O [Peptide 13, Ac-DNal(2’)-Arg-DNal(2’)-DLys-NH2] (Ac-[d2Nal]R[d2Nal][dK]-NH2)",mMC1R partial agonist percentage of receptor activation relative to NDP-MSH,mMC1R,30 % NDP
same,selectivity for the mMC4R over the mMC3R (antagonist),mMC4R [9],more than 150 fold
H-RFWG-NH2,effect on α-MSH-stimulated melanin production,[2],inhibited α-MSH-stimulated melanin production
"CC(=O)N[C@H](Cc1ccc2ccccc2c1)C(=O)N[C@@H](CCCNC(=N)N)C(=O)N[C@H](Cc1ccc2ccccc2c1)C(=O)N[C@@H](CCCNC(=N)N)C(N)=O [Peptide 15, Ac-DNal(2’)-Arg-DNal(2’)-Arg-NH2] (Ac-[d2Nal]R[d2Nal]R-NH2)",mMC1R partial agonist percentage of receptor activation relative to NDP-MSH,mMC1R,60 % NDP
same,selectivity for the mMC4R over the mMC3R (antagonist),mMC4R [9],more than 150 fold
H-RLWG-NH2,effect on α-MSH-stimulated melanin production,[2],inhibited α-MSH-stimulated melanin production
Ac-His-DPhe-Arg-Trp-NH2 [reference compound],mMC4R agonist potency in words,mMC4R [7],nanomolar agonist potency
